Data on 1 compound can be found in article doi:10.1101/2025.11.04.686469, “Discovery of Host-Directed Small Molecules with Broad Anti-Leishmanial Efficacy” (bioRxiv, 2025).

In experiment [1] the target is T1, lysozyme (Homo sapiens, UniProt P61626).
T1 construct: endogenous in cells; host or cells: THP-1 cells differentiated with PMA and infected with L. mexicana promastigotes; cell lysate
T1 sequence (P61626 19-148): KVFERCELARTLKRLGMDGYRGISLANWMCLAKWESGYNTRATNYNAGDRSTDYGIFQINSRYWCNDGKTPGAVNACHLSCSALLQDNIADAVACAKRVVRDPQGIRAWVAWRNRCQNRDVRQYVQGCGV
The experiment in a line: Thermal proteome profiling in Leishmania infected macrophage lysate. The experiment is classed as binding. The settings on record: ligand 100 μM. How it is done:
To generate cell lysate, ten million THP-1 cells were plated overnight in a 10cm dish, then differentiated with 150 nM phorbol 12-myristate 13-acetate (PMA) for 72 hours. The resulting macrophages were infected with L. mexicana promastigotes at a multiplicity of infection of 10 and incubated for 18 hours. After infection, cells were washed three times with PBS to remove extracellular promastigotes. Cells were then collected by scraping and pelleted with centrifugation. The cell pellet was resuspended in phosphate buffered saline and subjected to five freeze-thaw cycles. Samples were centrifuged 14,000g x 10 minutes to remove cellular debris. Protein concentration of supernatant was determined by BCA assay and cell lysate was stored at −80 °C until further use.
The cell lysate was divided into two portions. One portion was spiked with the 197 ligand in DMSO to generate the with ligand sample; and the other portion was spiked with DMSO to generate the without ligand sample. The final concentration of […] in the with ligand sample was 100 μM, and both the without and with ligand samples contained 1% DMSO. The with and without samples were each subjected five replicate one-pot TPP analyses like that previously described.[20–22] […]

Experiment [2] has as its system intracellular L. donovani in WT and Lys K/O BMDMs. Kind of experiment: 197 target validation: Giemsa staining in BMDMs from wild-type and lysozyme knockout mice. The settings on record: WT vs Lys K/O BMDMs. The experiment is classed as cell-based, Leishmania donovani. The text has this:
B6.129P2-Lyz2^tm1(cre)Ifo/J mice[23] (stock #004781, herein termed ‘Lys K/O’) were obtained from Jackson Laboratory. This strain has a nuclear-localized Cre recombinase inserted into the first coding ATG of the lysozyme 2 gene (Lyz2) which eliminates endogenous Lyz2 gene function. Wildtype C57BL6/J mice (stock #000664) were obtained as a control.
Bone marrow derived macrophages (BMDMs) were isolated from both mice and cultured as described above in “Image-based Evaluation of Intracellular Anti-Leishmanial Activity”. BMDMs were seeded onto glass cover slips, infected with LV82 L. donovani at a multiplicity of infection of 1:10. Cells were washed to remove extracellular promastigotes and treated with compounds (197, amphotericin B) for a 72-hour incubation. BMDM cells were then washed with phosphate buffered saline, fixed with ice-cold methanol, and stained with Giemsa (5% v/v in water). The cover slips with stained cells are mounted onto glass slides and imaged on EVOS XL (100X, Thermo Fisher Scientific). Leishmania amastigotes per 100 macrophages were determined in a blinded manner.

In experiment [3] the test system is intracellular L. mexicana amastigotes. The experiment in a line: microbe, parasite or virus in culture. The experiment is classed as cell-based, Leishmania mexicana. The settings on record: bone marrow derived macrophages, Giemsa staining. How it is done: Bone marrow derived macrophages (BMDMs) were isolated from BALB/c mice and cultured as previously described. Briefly, bone marrow was harvested from long bones of mice and the isolated cells were seeded at a concentration of 2 x 10^6 cells/mL in petri dishes with RPMI media supplemented with 10% FBS, 1% Penn-Strep and 10% L929 conditioned media (LCM). Completely differentiated BMDMs are obtained after 7 days of culture with media change every 2 days. Harvested cells were seeded onto 10 mm glass cover slips at 5 x 10^5 cells/ well of a 24 well plate in DMEM media (without LCM) and allowed to adhere overnight. BMDM cells are then infected overnight with LV82 L. donovani or L. mexicana (NR-51210) at a multiplicity of infection of 10. After infection, cells were washed three times with fresh media to remove extracellular promastigotes and treated with compounds for a 72-hour incubation. BMDM cells were then washed with phosphate buffered saline, fixed with ice-cold methanol, and stained with Giemsa (5% v/v in water). The cover slips with stained cells are mounted onto glass slides and imaged on EVOS XL (100X, Thermo Fisher Scientific). Leishmania amastigotes per 100 macrophages were determined in a blinded manner.

With `O=C(CNCc1cccc(F)c1)Nc1ccc(-n2cc(C(F)(F)F)nc2-c2ccc(-c3ccc(C(F)(F)F)cc3)cc2)cc1` [Compound 197], the “TPP z-score for lysozyme” value in experiment [1] came to 4.32. Also, the “anti-leishmanial activity in Lys K/O BMDMs” value in experiment [2] is listed as “notably decreased”. For the same compound, the IC50 (as a rule, the concentration that inhibits the measured activity by half) was less than 2000 nM in experiment [3] (Leishmania mexicana, Macrophage) and 1700 nM in experiment [3].
